Results on 3 compounds are retold here after patent US12454511B2, “6-methoxy-3,4-dihydro-1H-isoquinolin compounds” (Eli Lilly and Company, priority 2020, dated 2025).

Counter-ions that a name gives are not always drawn.

One assay concerns the target T1, human GLP-1R (Homo sapiens, UniProt P43220).
T1 construct: expressed in transfected cells; host or cells: HEK293 clonal cell line
The assay can be described thus: Human GLP-1 Receptor Potentiator Assay (cAMP formation, HTRF, in presence of EC20 dose of oxyntomodulin). The format is cell-based. Particulars: HEK293 GLP-1R cell line intracellular cAMP response, with 5 nM oxyntomodulin. How it is done:
Human GLP-1 Receptor Potentiator Assay
GLP-1 Receptor (GLP-1R) functional activity is determined using cAMP formation in an HEK293 clonal cell line expressing human GLP-1R (NCBI accession number NP_002053). […] After 60 min incubation at room temperature, the resulting increase in intracellular cAMP is quantitatively determined using a custom CisBio cAMP Hybrid HTRF Assay Kit (60MISZZZ). Briefly, cAMP levels within the cell are detected by adding the Dynamic 2 cAMP-d2 conjugate in cell lysis buffer (10 μL) followed by the HiRange antibody anti-cAMP-Eu^3+-Cryptate, also in cell lysis buffer ([…]). The resulting competitive assay is incubated for at least 60 min at RT, then detected using a PerkinElmer Envision® instrument with excitation at 320 nm and emission at 665 nm and 620 nm. […]
A general note: Changes in cAMP serve as a functional read-out for many G protein-coupled receptors.

A further assay concerns the target T2, human GIPR (Homo sapiens, UniProt P48546).
T2 construct: expressed in transfected cells; host or cells: HEK293 clonal cell line
T2 sequence (P48546 22-466): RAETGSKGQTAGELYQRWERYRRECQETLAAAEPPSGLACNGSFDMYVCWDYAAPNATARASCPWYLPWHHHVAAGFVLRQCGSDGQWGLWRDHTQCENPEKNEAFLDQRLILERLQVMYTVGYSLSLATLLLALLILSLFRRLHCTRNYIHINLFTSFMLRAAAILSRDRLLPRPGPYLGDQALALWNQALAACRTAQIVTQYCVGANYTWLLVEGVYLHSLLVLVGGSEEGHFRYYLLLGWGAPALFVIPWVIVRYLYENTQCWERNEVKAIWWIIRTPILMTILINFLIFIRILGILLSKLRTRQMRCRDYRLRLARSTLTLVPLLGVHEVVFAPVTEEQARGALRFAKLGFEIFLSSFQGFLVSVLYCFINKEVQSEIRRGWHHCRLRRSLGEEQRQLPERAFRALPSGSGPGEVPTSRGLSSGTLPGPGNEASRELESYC
The assay can be described thus: Human GIP Receptor Potentiator Assay (cAMP formation, HTRF, in presence of EC20 dose of GIP(1-42)). The settings on record: HEK293 GIPR cell line intracellular cAMP response, with 25 pM GIP(1-42); for Emax: percent top of maximal response; for EC50: relative EC50, read-out: EC50 (nM) and SEM (n). The format is cell-based. The method, then: Human GIP Receptor Potentiator Assay
GIP Receptor (GIPR) functional activity is determined using cAMP formation in an HEK293 clonal cell line expressing human GIPR (NCBI accession number NP_000155). […] The hGIPR receptor expressing cells are treated with 25 pM of GIP(1-42) (Labcyte Echo direct dilution) and a dose response of test compound (10 point concentration-response curve in DMSO, 3-fold Labcyte Echo direct dilution, 384 well plate Corning Cat #3570) in DMEM (Gibco Cat #31053) supplemented with 1× GlutaMAX™ (Gibco Cat #35050), 0.1% bovine casein (Sigma C4765-10ML), 250 μM IBMX (3-Isobutyl-1-methylxanthine, Acros Cat #228420010) and 20 mM HEPES (Gibco Cat #15630) in a 20 μL assay volume (final DMSO concentration is 1.0%). After a 30 min incubation at 37° C., the resulting increase in intracellular cAMP is quantitatively determined using the CisBio cAMP Dynamic 2 HTRF Assay Kit (62AM4PEJ). Briefly, cAMP levels within the cell are detected by adding the cAMP-d2 conjugate in cell lysis buffer (10 μL) followed by the antibody anti-cAMP-Eu^3+-Cryptate, also in cell lysis buffer (10 μL). The resulting competitive assay is incubated for at least 60 min at room temperature, then detected using a PerkinElmer Envision® instrument with excitation at 320 nm and emission at 665 nm and 620 nm. Envision units (emission at 665 nm/620 nm*10,000) are inversely proportional to the amount of cAMP present and are converted to nM cAMP per well using a cAMP standard curve. The amount of cAMP generated (nM) in each well is converted to a percent of the maximal response observed. A relative EC50 value and percent top (Emax) are derived by non-linear regression analysis using the percent maximal response vs. the concentration of compound added, fitted to a four-parameter logistic equation. The EC50 and Emax data when the compounds of Examples 1 and 3 are tested in the cAMP assay described above are shown in Table 1.

T1 sequence (P43220 24-463): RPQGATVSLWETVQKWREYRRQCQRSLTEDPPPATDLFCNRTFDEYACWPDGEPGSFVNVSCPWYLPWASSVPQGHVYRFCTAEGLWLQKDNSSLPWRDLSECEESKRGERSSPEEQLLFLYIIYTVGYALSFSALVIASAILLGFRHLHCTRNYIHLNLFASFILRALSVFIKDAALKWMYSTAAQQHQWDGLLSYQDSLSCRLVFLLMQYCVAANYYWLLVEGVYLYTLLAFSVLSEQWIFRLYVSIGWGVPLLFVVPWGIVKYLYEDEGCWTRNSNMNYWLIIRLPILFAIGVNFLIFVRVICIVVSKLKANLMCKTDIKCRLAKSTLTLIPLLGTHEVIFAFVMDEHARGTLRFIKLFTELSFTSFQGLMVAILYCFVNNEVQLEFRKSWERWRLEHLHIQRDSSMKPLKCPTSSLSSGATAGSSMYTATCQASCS

A word on the Emax: it is the size of the effect at its maximum, as opposed to the concentration needed. A word on the EC50: it is the concentration at which the effect is half-maximal. On to `COCC1Cc2c(ccc(OC)c2-c2ccc(O)c(C)c2)CN1Cc1ccc(C(C)C)cc1O` (single isomer, unassigned) [Example 2, 4-[2-[(2-Hydroxy-4-isopropyl-phenyl)methyl]-6-methoxy-3-(methoxymethyl)-3,4-dihydro-1H-isoquinolin-5-yl]-2-methyl-phenol; hydrochloride], for which the Emax on human GLP-1R (percent top of maximal response) came out at 181 ± 35%. Also, the EC50 on human GLP-1R (relative EC50, read-out: EC50 (nM) and SEM (n)) was 15.7 nM.
As for `COc1ccc2c(c1-c1cc(C)c(O)c(F)c1)CCN(C(C)c1ccc(C(C)C)cc1)[C@@H]2C` (single isomer, unassigned) [Example 3, hydrochloride], at human GIPR, the Emax came to 91 ± 8% and the EC50 worked out at 37.5 nM.
For `COc1ccc2c(c1-c1cc(F)c(O)c(NCC(C)C)c1)CCN(C(C)c1ccc(C(C)C)cc1)[C@@H]2C` (single isomer, unassigned) [Example 1, dihydrochloride] the same measures were 101 ± 7% and 11.9 nM.
